Data from patent US20250090572A1 (priority 2020, published 2025).

Experiments:
[1] = molecular target: SARS-CoV-2 spike protein (Severe acute respiratory syndrome coronavirus 2, UniProt P0DTC2); assay type: binding; conditions: spike protein 50 nM, polysaccharide 1 μM
[2] = system: Pseudovirus particles containing surface Wuhan-Hu-1 SGP; assay type: cell-based, SARS-CoV-2

## heparin
[1]; competitive binding inhibition between polysaccharide-spike protein complex and heparin-SPR chip
  Binding inhibition: 82 ± 7.5%
[1]
  competition with immobilized heparin for spike protein binding: competed with heparin for spike protein binding
[2]
  IC50: 4.6 mg/L

## pentosan polysulfate [PPS]
[2]
  IC50: 1.6 mg/L
